Assay: Onset and duration of effect of methylcobalamin administration (subject reports, QEEG)
Format: in vivo, human
Details: varies between persons
Method: In a person responsive to methylcobalamin, the effects of methylcobalmin administered nasally may begin to occur within minutes of administration. […] In various experiments, subjects reported feeling better in minutes and sometimes seconds. Thus, improvements can occur within the first hour of administration.
Although the effects of a typical administration can last about 24 hours, every person is different. Thus, some people can become depleted of available methylcobalamin in hours or less, while others can feel the benefits for days. The dosage and frequency of methylcobalamin administration can decrease over time, particularly with changing lifestyle or eating habits. For example, reducing intake of milk and wheat products, complex carbohydrates and starches, and improvements to intestinal flora may reduce the need for methylcobalamin.

SMILES: C/C1=C2/[N-][C@H]([C@H](CC(N)=O)[C@@]2(C)CCC(=O)NC[C@@H](C)OP(=O)([O-])O[C@H]2[C@@H](O)[C@@H](n3cnc4cc(C)c(C)cc43)O[C@@H]2CO)[C@]2(C)N=C(/C(C)=C3N=C(/C=C4N=C1[C@@H](CCC(N)=O)C\4(C)C)[C@@H](CCC(N)=O)[C@]\3(C)CC(N)=O)[C@@H](CCC(N)=O)[C@]2(C)CC(N)=O.[CH3-].[Co+3] [methylcobalamin]
- duration of effects of a typical administration: about 24 hours

Reference: patent publication US20100168053A1, “ORAL DELIVERY SYSTEM FOR METHYLCOBALAMIN TO TREAT DISORDERS” (REVITAPOP, priority 2008, published 2010)
